Results taken from patent publication US8871900B2, “Fibroblast growth factor (FGF) analogs and uses thereof” (University of Rochester, priority 2008, dated 2014).
Peptide text beside a SMILES is read from it.

What was measured:
[1] = test system: BM progenitors; assay: BM progenitors (CD24, CD34) by flow cytometry after in vivo FGF-P; parameters: species or system mouse; settings: in vivo administration following radiation
Excerpt: To determine if the stem cells are better regenerated, freshly harvested BM cells were stained with CD24, CD34 (two critical markers for BM multi-potential progenitors) and TER119 (a marker for reticulcoytes), and then analyzed with flow cytometry. […] This is consistent with the above in vitro data. After IR, there appears a very active generation of BM progenitors, a rebound phenomenon, similar to the intestine crypts that actively regenerate following IR to compensate for lost villi.

[2] = test system: MCP-1, IL-6, TNFα; assay: Plasma inflammatory molecules after sub-TBI (Luminex bead array); type: in vivo, mouse (Balb/c); settings: Balb/c, 12 Gy sub-TBI, 3.5 days; FGF-P 2 mg/kg at 10 min post-IR and daily for two days
Experimental: Bead array technology has been developed to facilitate the study of cytokine expression profiles in normal tissues following radiation. Bead arrays have several advantages over ELISA. First, mice have a limited blood volume (0.3-0.4 ml of plasma/mouse). Each ELISA typically requires approximately 0.1 ml and thus only a limited number of assays are possible. Secondly, the time required to perform ELISAs one by one stresses the system in a large experiment and would be difficult to perform in the field in case of a radiological event. The Luminex bead array technology was used. The paired monoclonal antibodies, the highly-purified protein standards, and the more than 50 different cytokinespecific beads were purchased. In these studies, Balb/c mice received 12 Gy sub-TBI and then im injection of vehicle alone (0.2 ml of saline), FGF-P (2 mg/kg at 10 min post-IR and daily for two days), or Amifostine (200 mg/kg, either 30 min before IR, or 10 min after IR). The samples were collected 3.5 days after IR.
All three of these cytokines are associated with increased severity and progression of radiation-related inflammatory toxicity in mouse and man.

[3] = target: human FGFR1 (Homo sapiens, UniProt P11362); assay: Biacore binding assay
human FGFR1, sequence (P11362 22-822): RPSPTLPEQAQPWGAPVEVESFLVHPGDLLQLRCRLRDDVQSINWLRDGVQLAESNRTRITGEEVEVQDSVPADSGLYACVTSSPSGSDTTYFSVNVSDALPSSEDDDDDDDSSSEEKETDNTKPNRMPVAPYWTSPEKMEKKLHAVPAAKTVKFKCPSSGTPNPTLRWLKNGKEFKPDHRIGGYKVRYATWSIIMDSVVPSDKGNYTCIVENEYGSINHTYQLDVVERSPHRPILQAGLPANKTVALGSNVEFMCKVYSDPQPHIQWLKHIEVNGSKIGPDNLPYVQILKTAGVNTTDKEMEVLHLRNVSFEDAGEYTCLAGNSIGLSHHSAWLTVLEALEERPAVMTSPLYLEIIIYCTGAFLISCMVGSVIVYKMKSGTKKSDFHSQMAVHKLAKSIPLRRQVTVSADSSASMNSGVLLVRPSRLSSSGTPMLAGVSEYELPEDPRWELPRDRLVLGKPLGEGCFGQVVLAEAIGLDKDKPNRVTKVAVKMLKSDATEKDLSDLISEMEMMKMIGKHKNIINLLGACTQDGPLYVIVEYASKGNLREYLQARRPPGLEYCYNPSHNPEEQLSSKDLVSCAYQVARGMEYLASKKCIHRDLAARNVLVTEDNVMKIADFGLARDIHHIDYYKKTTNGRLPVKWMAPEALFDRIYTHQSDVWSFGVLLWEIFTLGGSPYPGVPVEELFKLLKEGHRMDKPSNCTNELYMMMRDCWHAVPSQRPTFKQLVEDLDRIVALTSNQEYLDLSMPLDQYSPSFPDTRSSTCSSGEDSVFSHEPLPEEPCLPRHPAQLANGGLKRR

[4] = Stool hemoccult score after sub-TBI; type: in vivo, mouse (Balb/c, C57BL/6); settings: Balb/c, 12.5 Gy sub-TBI; FGF-P 2 mg/kg im 15 min post irradiation; Amifostine iv 30 min pre-irradiation; P<0.05
Excerpt: There are commonly employed assays known to be relevant to both mouse and man for determining relative endpoints. These include: 1) stool blood: mucosal barrier breakdown is associated with bleeding of the small bowel; therefore, a hemoccult analysis with a commercial kit (BD Cat #64151) was used in the preliminary data at 3 days after sub-TBI. The time course and frequency of GI bleeding; 2) stool formation: the GI functions of digestion, absorption of nutrition and water, and the regular movement of intestinal muscle are required for formation of normal stool can be measured. All these functions can be upset by radiation. For example, loss of villi leads to decreased fluid absorption and diarrhea. The colon was excised and examined visually for the presence of formed stool at 3.5 days post-IR; 3) endotoximia: bacterial translocation can occur at early times following gastrointestinal radiation exposure.
2) A standard scoring scale was used to evaluate stool formation (diarrhea). The bowel was extracted from the abdomen and visually inspected. Formed stool was easily distinguished from semi-solid and liquid stool as it passed from the ascending to descending colon. FIGS. 7B and 7C show the irradiated bowel in controls compared with FGF-P-treated Balb/c mice. The FGF-P was given at a dose of 2 mg/kg im for three daily doses beginning 15 min after irradiation. […]

[5] = Plasma GI endocrine and exocrine markers after sub-TBI; type: in vivo, mouse (Balb/c); settings: 10.5 Gy sub-TBI, 3.5 days
Excerpt: The gastrointestinal tract facilitates nutritional absorption and digestion through endocrine organs and exocrine function. Measurements of these functions in Balb/c mice with AGS, with and without FGF-P treatment have been made. Regarding endocrine function, critical proteins produced by epithelial cells lining the small intestine and/or the pancreas are: 1) secretin, which stimulates secretion of a bicarbonate-rich fluid from the pancreas and liver; and 2) insulin, produced by pancreatic β cells, which controls the level of blood glucose. Regarding exocrine function, a major digestive protein, amylase was measured. Amylase is secreted by epithelial cells along the GI tract, including the pancreas.
For secretin, the amino acid sequence in mice is ([…], SEQ ID NO: 4), which has a one amino acid change (M vs. T) at position 5. The kit for human secretin (Peninsula Laboratories, cat #S-1229) has been tested and it recognizes the mouse form. A mouse insulin kit is available (Linco Inc. Cat #EZRMI-13 K). The EnzChek Ultr Amylase Assay kit (Molecular Probes, Cat #E33651.3) can be used for all species, since it measures for the enzymatic product. Blood glucose level can be measured with a commercial kit from Sigma (Cat #GAG0-20 and GAHK-20) and is based on enzymatic activity, which is also universal to all species. Using these kits, the alterations in the plasma concentrations of the GI-derived proteins and peptides in mice that had been exposed to 10.5 Gy sub-TBI and, thereafter, received vehicle alone or FGF-P ([…] im) for 3 doses (10 min, 1 day, and 2 days post-IR) were measured. The samples were collected 3.5 days after irradiation.

[6] = test system: irradiated human cells; assay: Responsiveness of irradiated human cells; type: cell-based
[7] = FGF-P (2 mg/ml im) 3 doses, P<0.05

## CC(C)C[C@H](NC(=O)[C@H](C)NC(=O)[C@@H](NC(=O)[C@H](Cc1ccc(O)cc1)NC(=O)[C@H](Cc1c[nH]c2ccccc12)NC(=O)[C@H](CO)NC(=O)[C@H](CO)NC(=O)[C@H](Cc1ccc(O)cc1)NC(=O)[C@H](CCCCN)NC(=O)[C@H](CCCNC(=N)N)NC(=O)[C@H](CO)NC(=O)[C@H](CCCNC(=N)N)NC(=O)[C@H](Cc1ccc(O)cc1)NC(=O)[C@@H](N)CS)C(C)C)C(=O)N[C@@H](CCCCN)C(=O)N[C@@H](CCCNC(=N)N)C(=O)N[C@@H](CS)C(=O)O [FGF-P, CYRSRKYSSWYVALKRC] (H-CYRSRKYSSWYVALKRC-OH; N-terminus and C-terminus assumed)
[1]
  number of BM progenitors (CD24, CD34): increased the number of BM progenitors following radiation
[2]
  plasma MCP-1, IL-6 and TNFα: normalized or near-normalized these factors
[3]
  binding to human FGFR1: binding of FGF-P to human FGFR1
[4]
  stool hemoccult score: reduced stool hemoccult score
[5]; [7]
  plasma amylase level: restored it to normal levels
  plasma insulin levels: restored to near normal
  plasma level of secretin: reversed this effect
[5]; FGF-P (im) 3 doses
  blood glucose: better preserved
[6]
  responsiveness of irradiated human cells: maintain their responsiveness to FGF-P
